According to PMC4129416, “YLT192, a Novel, Orally Active Bioavailable Inhibitor of VEGFR2 Signaling with Potent Antiangiogenic Activity and Antitumor Efficacy in Preclinical Models” (Scientific Reports, 2014):

Tests used:
[1] = test system: HUVEC; test: Transwell invasion assay; assay type: cell-based, human; details: various concentrations; 24 hours; concentration-dependent
From the text: (§1) Cell migration is essential for ECs in angiogenesis and for cancer cells in tumor growth and metastasis. […] Cell invasion is essential for EC in angiogenesis, so we performed transwell assays to evaluate the ability of HUVEC to pass through the Matrigel and membrane barriers of the transwell in the presence of various concentrations of YLT192 or vehicle.
Figure 2 Effects of YLT192 on HUVECs proliferation, migration, invasion and tube formation. […] Cells were wounded by the pipette and then treated with various concentrations of compounds for 24 hours. Migrated cells were quantified by manual counting (50×). […] The bottom chambers of the transwells were filled with 600 μL EGM2 containing various growth factors while the top chambers were seeded with 4 × 10^4 HUVECs in EBM2 and treated with different concentrations of compounds for 24 hours. Cells invaded through the membrane were stained and quantified (100×). […] HUVECs were seeded on Matrigel layer and treated with different concentrations of compounds. HUVECs tube formation was assessed 6 hours later (50×). One representative experiment of three is shown. […]
(§2) HUVECs were allowed to grow into full confluence in 24-well plates and then wounded by scratching with pipette tips and washed with PBS. […] Images were taken using a ZEISS digital microscope and invading cells were counted by manual counting. […]

[2] = Pharmacokinetics in male wistar rats; assay type: in vivo
From the text: Appropriate pharmacokinetic parameters are essential to determine the efficacy of anti-cancer drugs. We determined the pharmacokinetic characteristics of YLT192 in male wistar rats. The pharmacokinetic parameters of YLT192 are summarized in Supplementary Table S2 and the plasma concentration versus time profile is shown in Supplementary Figure S3.
Supplementary Table S2: Pharmacokinetic parameters for YLT192 in rats (n=6 mice per group). Data are means ± SD. […]
Note: I.V.=intravenous, P.O.=orally administration, Cmax =maximum plasma concentration, AUC=area under the curve, T1/2=half life of the inhibitor, CL=clearance , Vz=volume of distribution, F=bioavailability
Supplementary Figure S3. Mean plasma concentration-time curves of YLT192.
After I.V.(20mg/kg) and P.O.(50mg/kg) administration of YLT192 in wistar male rats, the concentration of YLT192 in the plasma was determined by HPLC (n=6 mice per group). Data are means ± SD.

[3] = mouse, in vivo
Description: (§3) All the HCT116 model mice were sacrificed after 24 days of treatment.
During the treatment of human colorectal carcinoma HCT116 xenograft on nude mice, they were also observed every day to investigate the side effects and toxicities after YLT192's longer time administration. Finally, serum biochemistry, hematological analysis, organ coefficients and histological examinations of heart, liver, spleen, lung, and kidney were carried out after dissection. Serum chemistry and hematological analysis was carried out.
in normal tissues. After the treatment of HCT116 xenograft, heart, liver, spleen, lung
and kidney of the mice were isolated and stained with H&E (n=6 mice per group).
Scale bars represent 50μm.
(1 picture or pasted object on this page, not shown here)

[4] = molecular target: VEGFR2 (Homo sapiens, UniProt P35968); test: Radiometric kinase assay (Millipore Kinase Profile Service); assay type: biochemical; set-up: purchased Millipore (Kinase Profile Service, UK); details: means ± SD, two independent experiments, read-out: inhibition rate at 1 μM (%)
VEGFR2, sequence (P35968 20-1356): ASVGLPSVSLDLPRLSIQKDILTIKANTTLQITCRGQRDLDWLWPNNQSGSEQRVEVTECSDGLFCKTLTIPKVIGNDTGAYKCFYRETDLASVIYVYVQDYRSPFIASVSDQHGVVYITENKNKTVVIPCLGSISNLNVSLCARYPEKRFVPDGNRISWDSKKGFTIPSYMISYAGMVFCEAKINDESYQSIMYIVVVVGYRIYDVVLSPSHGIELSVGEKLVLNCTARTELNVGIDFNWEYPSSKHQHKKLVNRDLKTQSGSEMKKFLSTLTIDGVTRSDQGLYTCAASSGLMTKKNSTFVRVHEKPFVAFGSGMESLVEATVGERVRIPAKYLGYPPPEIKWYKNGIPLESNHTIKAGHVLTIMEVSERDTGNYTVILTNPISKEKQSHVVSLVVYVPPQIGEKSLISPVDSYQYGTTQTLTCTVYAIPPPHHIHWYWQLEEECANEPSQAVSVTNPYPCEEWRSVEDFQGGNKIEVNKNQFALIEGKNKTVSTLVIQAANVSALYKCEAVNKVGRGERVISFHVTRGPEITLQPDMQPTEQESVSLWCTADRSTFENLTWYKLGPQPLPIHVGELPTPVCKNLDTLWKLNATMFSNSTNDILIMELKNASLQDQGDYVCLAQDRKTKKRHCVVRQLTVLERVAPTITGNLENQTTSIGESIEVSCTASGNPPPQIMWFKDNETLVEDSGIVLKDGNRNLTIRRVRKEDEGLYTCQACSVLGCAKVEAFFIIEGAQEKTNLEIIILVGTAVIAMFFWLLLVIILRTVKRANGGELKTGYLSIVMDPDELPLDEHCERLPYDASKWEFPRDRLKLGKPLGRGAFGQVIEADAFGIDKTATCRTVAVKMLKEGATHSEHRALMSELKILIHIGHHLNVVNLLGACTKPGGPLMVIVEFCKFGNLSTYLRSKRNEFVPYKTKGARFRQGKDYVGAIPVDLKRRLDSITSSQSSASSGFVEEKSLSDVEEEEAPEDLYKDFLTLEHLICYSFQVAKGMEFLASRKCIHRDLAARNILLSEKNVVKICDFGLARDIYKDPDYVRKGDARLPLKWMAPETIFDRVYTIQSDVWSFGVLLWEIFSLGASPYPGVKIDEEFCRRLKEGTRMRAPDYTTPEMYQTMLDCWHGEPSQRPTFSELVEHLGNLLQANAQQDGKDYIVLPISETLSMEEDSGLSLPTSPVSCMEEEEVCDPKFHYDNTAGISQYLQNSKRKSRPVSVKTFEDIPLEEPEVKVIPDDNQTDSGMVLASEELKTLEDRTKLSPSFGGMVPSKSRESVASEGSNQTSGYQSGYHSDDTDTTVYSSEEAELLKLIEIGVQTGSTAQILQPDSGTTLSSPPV
Description: YLT192 was designed and synthesized in the State Key Laboratory of Biotherapy, Sichuan University (Sichuan, China). Its structural formula and synthesis route was shown in Fig. 1A and Supplementary Figure S1, respectively. The kinase inhibitory activity of YLT192 was measured by the use of radiometric assays provided by Kinase Profile Service (Millipore, UK). The effects of YLT192 on kinase activity were detected using the scintillation proximity assay method at an enzymatic level. […] In addition, the inhibitory activity of YLT192 was examined against platelet-derived growth factor receptor (PDGFR)-related kinases because of their structural similarity to the VEGFR2. […] Moreover, excellent selectivity for VEGFR2 was evident compared with a range of unrelated tyrosine and serine/threonine kinases, including fibroblast growth factor receptor 3, polo-like kinase 1, aurora-A, Axl, MET, protein kinase A, c-RAF etc.

[5] = test system: HUVEC; test: Wound healing migration assay; assay type: cell-based, human; details: 24 hours
From the text: as §1
Figure 2 Effects of YLT192 on HUVECs proliferation, migration, invasion and tube formation. […] Cells were wounded by the pipette and then treated with various concentrations of compounds for 24 hours. Migrated cells were quantified by manual counting (50×). […] The bottom chambers of the transwells were filled with 600 μL EGM2 containing various growth factors while the top chambers were seeded with 4 × 10^4 HUVECs in EBM2 and treated with different concentrations of compounds for 24 hours. Cells invaded through the membrane were stained and quantified (100×). […] HUVECs were seeded on Matrigel layer and treated with different concentrations of compounds. HUVECs tube formation was assessed 6 hours later (50×). One representative experiment of three is shown. For (A), (B) and (C), data represent the mean ± SEM of three different experiments. Each experiment was performed in duplicate.*P < 0.05, **P < 0.01. (D) YLT192 inhibited VEGF-induced phosphorylation of VEGFR2 and its downstream signal regulator p44/42 MAPK, STAT3 and AKT in HUVECs. One representative Western blot of three is presented. Each has the expression of β-actin as internal control. The full size blots were shown in the Supplemental Figure S5 online. (E) Cellular thermal shift assay showing VEGFR2 target engagement by YLT192 in intact HUVECs. One representative Western blot of two is presented. The full size blots were shown in the Supplemental Figure S6 online. […]
as §2

[6] = Acute toxicity test; assay type: in vivo; details: rats
Description: as §3
Acute toxicity test was done to investigate the safety profiles of YLT192 on rats. Briefly, 7–8 week old female and male rats (n = 10, respectively) were orally administrated with YLT192 at 3000 mg/kg. Then clinical symptoms of the rats including mortality, body weight and gross findings were observed once daily for 14 days. On day 14, the rats were sacrificed and examined by necropsy.

[7] = male, Wistar, rat, plasma, po, 50 mg/kg, P.O. 50 mg/kg, means ± SD, n=6

SMILES: CNC(=O)c1cc(Oc2ccc(NC(=O)c3cccc(OC)c3)cc2)ccn1 [YLT192]
- invasion of HUVECs in transwell assay [1]: significantly inhibited
- Vz ([2]; P.O. 50 mg/kg, means ± SD, n=6): 7.84 ± 1.12 L/kg
- half-life ([2]; male, Wistar, rat, plasma, iv, 20 mg/kg, I.V. 20 mg/kg, means ± SD, n=6): 4.1 ± 2.1 h
- AUC(0-inf) ([2]; male, Wistar, rat, plasma, iv, I.V. 20 mg/kg, means ± SD, n=6): 65900 ± 6200 ng·h/mL
- Vd ([2]; male, Wistar, rat, plasma, iv, I.V. 20 mg/kg, means ± SD, n=6, read-out: Vz): 1.79 ± 0.24 L/kg
- bioavailability ([2]; male, Wistar, rat, plasma, oral, P.O. 50 mg/kg vs I.V. 20 mg/kg, read-out: F (oral bioavailability)): 50.5%
- Cmax [2, 7]: 4100 ± 400 ng/mL
- half-life [2, 7]: 9.1 ± 4.1 h
- AUC(0-inf) ([2]; male, Wistar, rat, plasma, po, P.O. 50 mg/kg, means ± SD, n=6): 83300 ± 21900 ng·h/mL
- adverse effects, such as diarrhea or toxic death [3]: did not observed adverse effects
- microscopic examination of the heart, liver, spleen, lung, and kidney [3]: no pathological changes
- inhibition at 1 µM [4]: 93 ± 3%
- migration of HUVEC ([5]; 2.5 μM, wound healing): strongly inhibited
- HUVECs migration in wound healing assay ([5]; various concentrations): inhibited HUVECs migration
- NOAEL at 14 days ([6]; both sexes, rat, in vivo, single oral 3000 mg/kg, 14 days observation, read-out: No Observed Adverse Effect Level (NOAEL)): > 3000 mg/kg
- mortality, clinical signs, and body weight ([6]; oral 3000 mg/kg, 14 days): no obvious changes were observed
